Laboratory results reported in article PMC4481867 (Bioorganic & medicinal chemistry letters, 2012).

Test: Solubility
Assay type: physicochemical
Conditions: precipitation at higher concentrations in the assay

In the case of O=C(Nc1ccc(-c2ccccc2)cc1)Nc1ccc(-c2ccnc3[nH]cnc23)cc1 [Compound 17], the solubility is reported as “poor solubility”.
